ChEMBL document CHEMBL3886406, “Substituted pyrrolo[2,3-b]pyridines as ITK and JAK inhibitors” (2015)

Molecular target: T1, Tyrosine-protein kinase ITK/TSK (Homo sapiens, UniProt Q08881)
T1 sequence (Q08881 whole entry): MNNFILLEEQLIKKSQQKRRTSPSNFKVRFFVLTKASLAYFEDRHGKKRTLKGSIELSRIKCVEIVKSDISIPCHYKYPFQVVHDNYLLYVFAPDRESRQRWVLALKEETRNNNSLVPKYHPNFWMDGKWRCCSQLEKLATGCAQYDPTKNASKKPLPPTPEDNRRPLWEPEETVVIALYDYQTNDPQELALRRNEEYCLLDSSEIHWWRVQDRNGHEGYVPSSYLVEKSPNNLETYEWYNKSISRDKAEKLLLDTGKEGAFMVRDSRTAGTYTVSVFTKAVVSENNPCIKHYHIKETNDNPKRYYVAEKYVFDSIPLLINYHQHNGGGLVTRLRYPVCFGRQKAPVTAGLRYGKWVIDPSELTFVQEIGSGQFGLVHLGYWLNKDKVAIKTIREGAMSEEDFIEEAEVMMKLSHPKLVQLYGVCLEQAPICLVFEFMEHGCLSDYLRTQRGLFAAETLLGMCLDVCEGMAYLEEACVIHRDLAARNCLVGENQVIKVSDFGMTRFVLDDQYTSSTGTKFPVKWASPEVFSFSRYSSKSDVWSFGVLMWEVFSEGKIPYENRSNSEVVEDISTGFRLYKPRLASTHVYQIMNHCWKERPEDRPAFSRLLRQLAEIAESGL
Experiment: Biochemical Inhibition Assay: 1H-pyrrolo[2,3-b]pyridine, 1H-pyrazolo[3,4-b]pyridine and 5H-pyrrolo[2,3-b]pyrazine series of compounds exhibited over >100 fold selective against Janus and TEC family of kinases except for the BMX and TXK it had activity of 30 and 45 nM respectively.

| SMILES | IC50 |
| --- | --- |
| C=CC(=O)Nc1cccc(-c2cnc3[nH]cc(C)c3c2)c1 | in the range around 35 nM |
| C=CC(=O)Nc1cccc(-c2cnc3[nH]cc(-c4cccc(C)c4F)c3c2)c1 | in the range around 72.4 nM |
| C=CC(=O)Nc1cccc(-c2cnc3[nH]cc(-c4cccc(S(=O)(=O)N(CC)CC)c4)c3c2)c1 | in the range around 35 nM |
| C=CC(=O)Nc1cccc(-c2cnc3[nH]cc(Cl)c3c2)c1 | in the range around 35 nM |
| C=CC(=O)Nc1cccc(-c2cnc3[nH]cc(-c4cc5ccccc5[nH]4)c3n2)c1 | in the range around 35 nM |
